{
  "source": "patent US5032573A",
  "about": "“Homologs of aprotinin produced from a recombinant host, process, expression vector and recombinant host therefor and pharmaceutical use thereof” (Bayer Aktiengesellschaft, priority 1989, dated 1991)",
  "assay_type_in_all_cases": "biochemical",
  "key": {"cationic human Trypsin": {"target": "cationic human Trypsin (Homo sapiens, UniProt P07477)", "assay": "Kinetic studies, Ki by the method of Empie and Laskowski", "method": "(§1) The Ki values were determined by the method of M. W. Empie and M. Laskowski, Jr., Biochem. 21, 2274 (1982)."}, "anionic human Trypsin": {"target": "anionic human Trypsin (Homo sapiens, UniProt P07478)", "sequence (P07478 24-247)": "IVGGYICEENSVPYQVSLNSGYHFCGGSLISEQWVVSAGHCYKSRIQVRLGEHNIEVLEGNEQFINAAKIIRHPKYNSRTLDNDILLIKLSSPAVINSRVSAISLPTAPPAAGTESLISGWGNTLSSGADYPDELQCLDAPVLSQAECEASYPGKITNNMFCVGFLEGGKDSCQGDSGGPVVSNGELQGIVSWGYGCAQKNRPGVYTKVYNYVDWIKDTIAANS", "assay": "Kinetic studies, Ki by the method of Empie and Laskowski", "method": "as §1"}, "porcine trypsin [1]": {"target": "T1, porcine trypsin (Sus scrofa, UniProt P00761)", "T1 construct": "purchased Merck 8350", "T1 sequence (P00761 9-231)": "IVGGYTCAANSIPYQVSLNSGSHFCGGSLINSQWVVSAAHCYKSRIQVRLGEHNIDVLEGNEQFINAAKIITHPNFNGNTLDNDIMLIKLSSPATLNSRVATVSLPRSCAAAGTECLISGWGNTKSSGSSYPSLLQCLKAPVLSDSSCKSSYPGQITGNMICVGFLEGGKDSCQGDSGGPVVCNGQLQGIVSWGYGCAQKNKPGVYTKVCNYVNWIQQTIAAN", "assay": "Trypsin inhibition assay with Pyr-Glu-Gly-Arg-pNA as the substrate", "method": "(§2) Glu-52-Aprotinin obtained after cleavage with BrCN was compared with authentic aprotinin for its inhibitory activity against porcine trypsin. Both substrates Pyrglu-Gly-Arg-pNA and Benzoyl-Arg-pNa were used for trypsin determination.\n(§3) The stock solution for aprotinin was 1 μg/ml, and for Glu-52-aprotinin 0.6 μg/ml. 0-100-200-300-400-500 μl of this stock solutions were used in the test with Benzol-Arg-pNA. In the test with Pyrglu-Gly-Arg-pNA,0-3-6-9-12-15 μl were used.\n(§4) Inhibition of trypsin was determined by means of either the substrate benzoyl-DL-arginine-p-nitroanilide (Merck 1670) or pyroglutamyl-glycyl-arginine-p-nitroanilide, which was synthesized from commercially available pyroglutamyl-glycine (SENN 6886) and arginine-p-nitroanilide×HBr (SENN 9123) by means of the dicyclohexyl carbodiimide condensation method. This substrate is also sold under the designation S-2444 by KABI as an urokinase substrate.\n(§5) The former has the advantage of giving a linear response to the amount of Aprotinin in the sample, but has a low sensitivity. The latter one has a high sensitivity, but due to the dissociation of the aprotinin-trypsin-complex at those low concentrations, the dose-response-curve is non linear.\n(§6) The buffer for the measurement of trypsin and trypsin inhibitors is 0.2M Tris, pH 8.0 containing 0.01M CaCl2 and 0.05% Tween 80®.\n(§7) The determinations can be performed in any spectral photometer which allows readings of optical densities (ODs) at 400 nm. For fully automated measurements, the photometers have to be equipped with a micro processor or must be interfaced with a suitable personal computer.\n(§8) Disposable 1 cm semi micro plastic cuvettes are used for all assays. ODs are read in time intervals of 1 minute over 8 cycles at ambient temperature. The average increase of OD per minute is arbitrarily taken as the activity unit.\n(§9) For inhibition assays, porcine trypsin (Merck 8350) solution (in 0.001N HCl/50% glycerol) is mixed with the inhibitor sample, adjusted to 500 μl with buffer and incubated for 10 minutes at ambient temperature. The reaction is initiated by the addition of substrate solution. Inhibitory activities are taken from a calibration curve or automatically calculated by computer programs developed especially for this purpose. […]"}, "porcine trypsin [2]": {"target": "T1, porcine trypsin", "assay": "Trypsin inhibition assay with Benzoyl-Arg-pNA as the substrate", "details": "for ΔE/10 minutes: control without inhibitor 0.91", "method": "as §2, §3, §4, §5, §6, §7, §8, §9"}, "[3]": {"details": "substrate Pyr-Glu-Gly-Arg-pNA, amount inhibitor per assay 9 ng, control without inhibitor 0.85 (aprotinin), 0.84 (Glu-52-aprotinin)"}, "[4]": {"details": "substrate Benzoyl-Arg-pNA, amount inhibitor per assay 300 ng"}},
  "data": [
    {"substance": "Arg-15-Glu-52-aprotinin", "values": [
      {"measurement": "Ki", "setting": "cationic human Trypsin", "result": "< 0.01", "unit": "nM"},
      {"measurement": "Ki", "setting": "anionic human Trypsin", "result": "< 0.01", "unit": "nM"}
    ]},
    {"substance": "Glu-52-aprotinin", "values": [
      {"measurement": "equilibrium constants of the trypsin-inhibitor complexes compared with aprotinin", "setting": "porcine trypsin [1]; concluded from the trypsin inhibition dose-response curves", "result": "in the same order of magnitude"},
      {"measurement": "trypsin inhibitory activity, dose-response curve compared with aprotinin", "setting": "porcine trypsin [1]; substrate Pyr-Glu-Gly-Arg-pNA, FIG. 11", "result": "identical dose-response curves"},
      {"measurement": "ΔE/10 minutes", "setting": "porcine trypsin [1]; substrate Pyr-Glu-Gly-Arg-pNA, amount inhibitor per assay 1.8 ng, control without inhibitor 0.84", "result": 0.67},
      {"measurement": "ΔE/10 minutes", "setting": "porcine trypsin [1]; substrate Pyr-Glu-Gly-Arg-pNA, amount inhibitor per assay 3.6 ng, control without inhibitor 0.84", "result": 0.56},
      {"measurement": "ΔE/10 minutes", "setting": "porcine trypsin [1]; substrate Pyr-Glu-Gly-Arg-pNA, amount inhibitor per assay 5.4 ng, control without inhibitor 0.84", "result": 0.47},
      {"measurement": "ΔE/10 minutes", "setting": "porcine trypsin [1]; substrate Pyr-Glu-Gly-Arg-pNA, amount inhibitor per assay 7.2 ng, control without inhibitor 0.84", "result": 0.32},
      {"measurement": "ΔE/10 minutes", "setting": "porcine trypsin [1]; [3]", "result": 0.28},
      {"measurement": "active molecules contained", "setting": "porcine trypsin [2]; concluded from the trypsin inhibition dose-response curves against authentic aprotinin", "result": "~100", "unit": "%"},
      {"measurement": "trypsin inhibitory activity, dose-response curve compared with aprotinin", "setting": "porcine trypsin [2]; substrate Benzoyl-Arg-pNA, FIG. 11", "result": "identical dose-response curves"},
      {"measurement": "ΔE/10 minutes", "setting": "porcine trypsin [2]; substrate Benzoyl-Arg-pNA, amount inhibitor per assay 60 ng", "result": 0.77},
      {"measurement": "ΔE/10 minutes", "setting": "porcine trypsin [2]; substrate Benzoyl-Arg-pNA, amount inhibitor per assay 120 ng", "result": 0.68},
      {"measurement": "ΔE/10 minutes", "setting": "porcine trypsin [2]; substrate Benzoyl-Arg-pNA, amount inhibitor per assay 180 ng", "result": 0.58},
      {"measurement": "ΔE/10 minutes", "setting": "porcine trypsin [2]; substrate Benzoyl-Arg-pNA, amount inhibitor per assay 240 ng", "result": 0.44},
      {"measurement": "ΔE/10 minutes", "setting": "porcine trypsin [2]; [4]", "result": 0.30}
    ]},
    {"substance": "Aprotinin [reference compound]", "values": [
      {"measurement": "ΔE/10 minutes", "setting": "porcine trypsin [1]; substrate Pyr-Glu-Gly-Arg-pNA, amount inhibitor per assay 3 ng, control without inhibitor 0.85", "result": 0.62},
      {"measurement": "ΔE/10 minutes", "setting": "porcine trypsin [1]; substrate Pyr-Glu-Gly-Arg-pNA, amount inhibitor per assay 6 ng, control without inhibitor 0.85", "result": 0.39},
      {"measurement": "ΔE/10 minutes", "setting": "porcine trypsin [1]; [3]", "result": 0.29},
      {"measurement": "ΔE/10 minutes", "setting": "porcine trypsin [1]; substrate Pyr-Glu-Gly-Arg-pNA, amount inhibitor per assay 12 ng, control without inhibitor 0.85", "result": 0.18},
      {"measurement": "ΔE/10 minutes", "setting": "porcine trypsin [1]; substrate Pyr-Glu-Gly-Arg-pNA, amount inhibitor per assay 15 ng, control without inhibitor 0.85", "result": 0.13},
      {"measurement": "ΔE/10 minutes", "setting": "porcine trypsin [2]; substrate Benzoyl-Arg-pNA, amount inhibitor per assay 100 ng", "result": 0.76},
      {"measurement": "ΔE/10 minutes", "setting": "porcine trypsin [2]; substrate Benzoyl-Arg-pNA, amount inhibitor per assay 200 ng", "result": 0.57},
      {"measurement": "ΔE/10 minutes", "setting": "porcine trypsin [2]; [4]", "result": 0.39},
      {"measurement": "ΔE/10 minutes", "setting": "porcine trypsin [2]; substrate Benzoyl-Arg-pNA, amount inhibitor per assay 400 ng", "result": 0.08},
      {"measurement": "ΔE/10 minutes", "setting": "porcine trypsin [2]; substrate Benzoyl-Arg-pNA, amount inhibitor per assay 500 ng", "result": 0.00}
    ]}
  ]
}
